Measured values taken from ChEMBL document CHEMBL6087482, “Discovery of INCB159020, an Orally Bioavailable KRAS G12D Inhibitor” (J Med Chem, 2025).

How the values were obtained:
[1] = Cmax in Sprague-Dawley rat at 3 mg/kg, po or 1 mg/kg, iv measured after 24 hrs by LC-MS/MS analysis; assay type: ADME, organism-based; details: in vivo
[2] = Cmax in Non human primate at […], po or 1 mg/kg, iv; assay type: ADME, organism-based; details: primates, in vivo, dose 1.5 mg/kg
[3] = Half-life in Non human primate at […], po or 1 mg/kg, iv; assay type: ADME, organism-based; details: primates, in vivo, dose 1.5 mg/kg
Cytochrome P450 1A2 = molecular target: T1, Cytochrome P450 1A2 (Homo sapiens, UniProt P05177); assay: Inhibition of CYP1A2 (unknown origin); assay type: ADME
T1 sequence (P05177 whole entry): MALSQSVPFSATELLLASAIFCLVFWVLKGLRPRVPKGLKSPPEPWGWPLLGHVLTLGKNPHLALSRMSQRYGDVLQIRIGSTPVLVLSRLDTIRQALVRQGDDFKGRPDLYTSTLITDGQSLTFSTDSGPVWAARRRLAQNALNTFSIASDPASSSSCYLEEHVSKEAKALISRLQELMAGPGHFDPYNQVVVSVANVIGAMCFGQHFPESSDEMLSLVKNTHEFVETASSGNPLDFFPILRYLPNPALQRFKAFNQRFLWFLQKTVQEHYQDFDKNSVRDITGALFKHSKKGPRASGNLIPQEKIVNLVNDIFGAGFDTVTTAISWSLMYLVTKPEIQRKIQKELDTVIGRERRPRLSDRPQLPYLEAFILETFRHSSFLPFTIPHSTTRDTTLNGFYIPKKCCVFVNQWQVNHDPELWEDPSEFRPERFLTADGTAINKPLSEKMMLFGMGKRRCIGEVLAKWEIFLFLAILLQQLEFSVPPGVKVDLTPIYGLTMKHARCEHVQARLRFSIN

[4] = Apparent permeability across apical to basolateral side in human Caco-2 cells at 50 uM incubated for 120 mins by LC-MS analysis; assay type: ADME, cell-based
Cytochrome P450 2D6 = Cytochrome P450 2D6 (Homo sapiens, UniProt P10635); assay: Inhibition of CYP2D6 (unknown origin); assay type: ADME
Cytochrome P450 2B6 = molecular target: T2, Cytochrome P450 2B6 (Homo sapiens, UniProt P20813); assay: Inhibition of CYP2B6 (unknown origin); assay type: ADME
T2 sequence (P20813 whole entry): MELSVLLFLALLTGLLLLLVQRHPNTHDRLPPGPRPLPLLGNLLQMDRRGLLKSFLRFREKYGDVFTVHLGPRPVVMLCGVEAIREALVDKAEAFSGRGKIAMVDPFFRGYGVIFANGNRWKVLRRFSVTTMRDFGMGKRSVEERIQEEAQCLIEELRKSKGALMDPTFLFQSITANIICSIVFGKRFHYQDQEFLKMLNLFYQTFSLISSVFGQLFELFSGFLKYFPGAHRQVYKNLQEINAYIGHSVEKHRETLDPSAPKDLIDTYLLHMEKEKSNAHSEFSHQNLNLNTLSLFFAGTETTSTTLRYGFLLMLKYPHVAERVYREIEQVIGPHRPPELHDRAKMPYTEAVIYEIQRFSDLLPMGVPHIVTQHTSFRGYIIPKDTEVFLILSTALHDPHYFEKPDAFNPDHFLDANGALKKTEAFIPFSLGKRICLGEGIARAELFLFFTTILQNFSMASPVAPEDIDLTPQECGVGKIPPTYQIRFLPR

[5] = Intrinsic clearance in human liver microsomes at 1 uM measured upto 30 mins in presence of NADPH by LC/MS analysis; assay type: ADME, Microsome; details: read-out: CLH (converted)
Aurora kinase B = Aurora kinase B (Homo sapiens, UniProt Q96GD4); assay: Binding affinity to Aurora B (unknown origin) in presence of ATP
Primates = assay: Clearance in Non human primate assessed as hepatic blood flow at […], po or 1 mg/kg, iv; assay type: ADME, organism-based; details: in vivo, dose 1.5 mg/kg
[6] = Drug concentration in mouse plasma xenografted with HPAC cells at 100 mg/kg, po measured after 24 hrs; assay type: ADME, organism-based
[7] = Half-life in Sprague-Dawley rat at 3 mg/kg, po or 1 mg/kg, iv measured after 24 hrs by LC-MS/MS analysis; assay type: ADME, organism-based; details: in vivo
[8] = Oral bioavailability in Sprague-Dawley rat at 3 mg/kg measured after 24 hrs by LC-MS/MS analysis; assay type: ADME, organism-based; details: in vivo
[9] = AUC in Sprague-Dawley rat at 3 mg/kg, po or 1 mg/kg, iv measured after 24 hrs by LC-MS/MS analysis; assay type: ADME, organism-based; details: in vivo
Cytochrome P450 3A4 = Cytochrome P450 3A4 (Homo sapiens, UniProt P08684); assay: Inhibition of CYP3A4 (unknown origin); assay type: ADME
[10] = Toxicity in mouse xenografted with human HPAC cells assessed as tolerance at 30 to 300 mg/kg, po measured after 24 hrs; assay type: organism-based; details: in vivo, dose 30-300 mg/kg
[11] = molecular target: High affinity nerve growth factor receptor (Homo sapiens, UniProt P04629); assay: Binding affinity to TRKA (unknown origin) in presence of ATP
[12] = Solubility of compound in FASSIF; assay type: physicochemical
[13] = AUC in Non human primate at […], po or 1 mg/kg, iv; assay type: ADME, organism-based; details: primates, in vivo, dose 1.5 mg/kg
[14] = Clearance in Sprague-Dawley rat assessed as hepatic blood flow at 3 mg/kg, po or 1 mg/kg, iv measured after 24 hrs by LC-MS/MS analysis; assay type: ADME, organism-based; details: in vivo
[15] = Oral bioavailability in Non human primate at […]; assay type: ADME, organism-based; details: primates, in vivo, dose 1.5 mg/kg
[16] = molecular target: Voltage-gated inwardly rectifying potassium channel KCNH2 (Homo sapiens, UniProt Q12809); assay: Inhibition of human ERG; assay type: toxicity
[17] = Solubility of compound in SGF; assay type: physicochemical
Cytochrome P450 2C9 = Cytochrome P450 2C9 (Homo sapiens, UniProt P11712); assay: Inhibition of CYP2C9 (unknown origin); assay type: ADME
[18] = Drug concentration in mouse plasma xenografted with HPAC cells at 300 mg/kg, po measured after 24 hrs; assay type: ADME, organism-based
Cytochrome P450 = assay: Time dependent inhibition of CYP (unknown origin); assay type: ADME, protein assay; details: human

Sequence of Cytochrome P450 3A4 (P08684 whole entry): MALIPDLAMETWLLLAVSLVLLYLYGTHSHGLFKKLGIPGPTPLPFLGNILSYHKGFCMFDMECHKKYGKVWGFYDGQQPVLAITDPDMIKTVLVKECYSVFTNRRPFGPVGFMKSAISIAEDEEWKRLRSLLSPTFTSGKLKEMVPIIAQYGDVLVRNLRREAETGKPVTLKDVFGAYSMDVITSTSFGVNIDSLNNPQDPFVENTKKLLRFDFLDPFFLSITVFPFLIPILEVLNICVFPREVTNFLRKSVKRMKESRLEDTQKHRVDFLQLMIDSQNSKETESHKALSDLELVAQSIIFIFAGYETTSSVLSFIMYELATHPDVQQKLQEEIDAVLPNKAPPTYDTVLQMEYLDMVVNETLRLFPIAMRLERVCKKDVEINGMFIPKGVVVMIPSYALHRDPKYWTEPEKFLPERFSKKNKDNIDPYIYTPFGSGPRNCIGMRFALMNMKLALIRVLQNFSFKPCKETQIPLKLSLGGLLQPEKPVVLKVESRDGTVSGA
Sequence of Cytochrome P450 2C9 (P11712 whole entry): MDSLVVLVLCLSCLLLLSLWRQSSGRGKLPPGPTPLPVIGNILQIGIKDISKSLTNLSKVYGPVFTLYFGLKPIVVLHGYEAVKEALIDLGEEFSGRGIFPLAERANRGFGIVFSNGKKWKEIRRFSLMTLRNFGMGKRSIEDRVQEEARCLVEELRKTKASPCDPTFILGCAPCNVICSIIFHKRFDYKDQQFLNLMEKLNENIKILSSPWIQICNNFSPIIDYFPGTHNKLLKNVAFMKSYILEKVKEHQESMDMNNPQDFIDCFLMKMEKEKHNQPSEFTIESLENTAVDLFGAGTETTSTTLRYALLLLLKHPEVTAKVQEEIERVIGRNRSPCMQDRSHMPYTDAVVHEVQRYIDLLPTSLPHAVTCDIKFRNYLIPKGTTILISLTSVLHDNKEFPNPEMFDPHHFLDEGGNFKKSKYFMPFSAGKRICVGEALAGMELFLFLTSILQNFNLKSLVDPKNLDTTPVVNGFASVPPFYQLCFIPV
Sequence of Voltage-gated inwardly rectifying potassium channel KCNH2 (Q12809 whole entry): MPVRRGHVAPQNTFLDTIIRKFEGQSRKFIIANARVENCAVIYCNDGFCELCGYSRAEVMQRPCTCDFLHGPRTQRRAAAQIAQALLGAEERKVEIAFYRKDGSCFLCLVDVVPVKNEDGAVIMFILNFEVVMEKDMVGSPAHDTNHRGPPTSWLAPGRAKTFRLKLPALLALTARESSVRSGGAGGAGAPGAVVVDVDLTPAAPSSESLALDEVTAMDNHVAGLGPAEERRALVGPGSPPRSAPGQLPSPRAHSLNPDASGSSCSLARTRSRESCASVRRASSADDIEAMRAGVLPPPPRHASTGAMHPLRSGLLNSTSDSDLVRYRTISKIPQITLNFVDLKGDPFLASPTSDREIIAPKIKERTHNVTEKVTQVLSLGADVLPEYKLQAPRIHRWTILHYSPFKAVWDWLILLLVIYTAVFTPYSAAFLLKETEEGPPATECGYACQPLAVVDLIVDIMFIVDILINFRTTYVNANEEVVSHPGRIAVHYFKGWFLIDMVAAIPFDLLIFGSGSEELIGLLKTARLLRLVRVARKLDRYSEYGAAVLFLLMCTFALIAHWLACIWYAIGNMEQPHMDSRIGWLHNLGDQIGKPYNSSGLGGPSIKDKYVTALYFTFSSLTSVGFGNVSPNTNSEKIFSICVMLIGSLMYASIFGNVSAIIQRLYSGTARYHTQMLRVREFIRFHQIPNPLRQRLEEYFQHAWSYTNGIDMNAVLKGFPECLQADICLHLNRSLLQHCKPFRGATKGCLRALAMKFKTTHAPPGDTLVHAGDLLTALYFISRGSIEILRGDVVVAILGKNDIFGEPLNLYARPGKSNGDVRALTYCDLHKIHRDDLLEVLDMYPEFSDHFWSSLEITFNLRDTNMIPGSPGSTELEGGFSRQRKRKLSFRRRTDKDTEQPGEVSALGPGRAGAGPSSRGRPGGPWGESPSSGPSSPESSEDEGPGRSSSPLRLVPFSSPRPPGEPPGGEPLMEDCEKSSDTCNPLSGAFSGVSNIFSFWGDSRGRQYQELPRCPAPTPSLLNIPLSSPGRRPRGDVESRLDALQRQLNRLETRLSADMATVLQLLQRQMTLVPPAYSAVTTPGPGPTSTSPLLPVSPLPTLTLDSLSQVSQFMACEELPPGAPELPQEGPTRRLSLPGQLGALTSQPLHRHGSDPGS
Sequence of Aurora kinase B (Q96GD4 whole entry): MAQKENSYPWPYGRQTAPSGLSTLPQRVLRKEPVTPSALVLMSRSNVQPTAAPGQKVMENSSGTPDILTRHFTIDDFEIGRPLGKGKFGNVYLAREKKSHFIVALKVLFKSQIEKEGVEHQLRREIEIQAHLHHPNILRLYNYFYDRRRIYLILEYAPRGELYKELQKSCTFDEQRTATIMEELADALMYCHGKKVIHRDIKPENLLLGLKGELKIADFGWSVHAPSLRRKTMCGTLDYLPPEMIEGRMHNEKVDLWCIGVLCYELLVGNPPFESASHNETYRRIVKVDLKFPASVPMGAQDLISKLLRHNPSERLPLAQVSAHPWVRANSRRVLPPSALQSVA
Sequence of High affinity nerve growth factor receptor (P04629 whole entry): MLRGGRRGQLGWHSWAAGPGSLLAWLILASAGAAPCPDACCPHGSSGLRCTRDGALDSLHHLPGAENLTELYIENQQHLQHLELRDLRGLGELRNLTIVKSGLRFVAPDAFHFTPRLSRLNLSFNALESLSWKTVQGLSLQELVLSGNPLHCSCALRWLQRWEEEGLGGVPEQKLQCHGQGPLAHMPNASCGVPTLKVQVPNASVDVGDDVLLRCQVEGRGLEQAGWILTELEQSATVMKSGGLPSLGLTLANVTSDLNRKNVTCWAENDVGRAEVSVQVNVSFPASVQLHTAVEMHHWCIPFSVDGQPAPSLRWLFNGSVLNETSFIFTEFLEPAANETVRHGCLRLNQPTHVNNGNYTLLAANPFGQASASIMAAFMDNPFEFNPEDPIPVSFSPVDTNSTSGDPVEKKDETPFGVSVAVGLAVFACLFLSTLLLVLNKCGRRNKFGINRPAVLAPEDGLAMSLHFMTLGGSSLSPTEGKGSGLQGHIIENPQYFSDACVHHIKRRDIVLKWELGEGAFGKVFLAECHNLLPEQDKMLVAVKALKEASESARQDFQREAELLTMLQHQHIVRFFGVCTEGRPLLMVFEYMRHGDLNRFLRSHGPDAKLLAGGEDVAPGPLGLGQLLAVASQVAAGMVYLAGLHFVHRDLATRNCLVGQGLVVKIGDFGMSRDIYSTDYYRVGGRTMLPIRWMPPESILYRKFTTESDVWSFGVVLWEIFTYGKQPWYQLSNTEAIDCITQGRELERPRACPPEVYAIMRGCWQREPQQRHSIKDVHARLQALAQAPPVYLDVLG
Sequence of Cytochrome P450 2D6 (P10635 whole entry): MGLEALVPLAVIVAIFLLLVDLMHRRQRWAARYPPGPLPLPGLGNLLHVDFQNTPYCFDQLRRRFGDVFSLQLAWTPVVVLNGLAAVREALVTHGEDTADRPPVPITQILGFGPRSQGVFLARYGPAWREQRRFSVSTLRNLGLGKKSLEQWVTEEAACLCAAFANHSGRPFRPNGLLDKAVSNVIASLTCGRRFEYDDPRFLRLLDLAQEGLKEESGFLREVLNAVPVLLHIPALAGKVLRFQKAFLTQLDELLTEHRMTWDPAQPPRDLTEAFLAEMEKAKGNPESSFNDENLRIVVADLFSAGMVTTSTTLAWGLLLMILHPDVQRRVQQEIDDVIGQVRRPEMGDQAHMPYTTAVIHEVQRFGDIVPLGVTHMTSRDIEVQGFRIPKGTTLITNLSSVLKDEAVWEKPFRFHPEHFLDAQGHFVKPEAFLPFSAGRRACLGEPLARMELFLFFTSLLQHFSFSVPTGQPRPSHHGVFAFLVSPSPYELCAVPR

- Cmax [1]: 57 nM
- Cmax [2]: 100 nM
- half-life [3]: 6.4 h
- IC50 (Cytochrome P450 1A2): > 20 µM
- Papp A→B at 2 h, 50 µM [4]: 3.6 ×10⁻⁶ cm/s
- IC50 (Cytochrome P450 2D6): 7.2 µM
- IC50 (Cytochrome P450 2B6): > 20 µM
- hepatic clearance at 1 µM [5]: 16.7 mL/min/kg
- IC50 (Aurora kinase B): 5.8 µM
- QH (Primates): 37%
- concentration at 24 h [6]: ~950 nM
- half-life [7]: 3.8 h
- bioavailability [8]: 27%
- AUC at 24 h [9]: 0.331 µM·h
- IC50 (Cytochrome P450 3A4): 17 µM
- IC50 [11]: 3.9 µM
- solubility [12]: > 79 µg/mL
- AUC [13]: 0.95 µM·h
- QH [14]: > 100%
- bioavailability [15]: 42%
- solubility [17]: > 900 µg/mL
- IC50 (Cytochrome P450 2C9): > 20 µM
- concentration at 24 h [18]: ~8500 nM
- TDI (Cytochrome P450): Not_active
Structure (SMILES): Cc1cnc(-c2nc3c(F)c(-c4cccc(Cl)c4C)c(CCC#N)cc3c3c2cc([C@@H](C)N2CCOCC2=O)n3[C@H]2[C@H]3CN[C@@H]2C3)cn1
- Activity [10]: Non-toxic
- IC50 [16]: 11.2 µM
